# Laboratory results reported in the supplement of paper PMC4977894.
# ± gives the standard deviation of the averaged measurements.
# Tests used:
# [1] = tested on: Homo sapiens (human subject panel, olfactory perception); test: perceived odor familiarity rating (rating 0-100); higher = more familiar
# Summary of the method: (§1)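 Values for familiarity, intensity and pleasantness are averaged over subjects. The panel of 55 healthy people aged 18–50 excluded the six lowest performers and rated each paraffin-oil dilution of a molecule at high and low concentrations. Ratings were made only for stimuli the subject reported smelling, on a slider converted to a 0–100 scale.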
# [2] = tested on: Homo sapiens (human subject panel, olfactory perception); test: perceived odor pleasantness rating (rating 0-100); higher = more pleasant
# Summary of the method: as §1
# [3] = tested on: Homo sapiens (human subject panel, olfactory perception); test: perceived odor intensity rating (rating 0-100); higher = stronger perceived smell
# Summary of the method: as §1
# [4] = odor dilution in paraffin oil: 1/1,000
# [5] = odor dilution in paraffin oil: 1/100,000
# [6] = odor dilution in paraffin oil: 1/10
SMILES,"perceived odor familiarity rating [1, 4]","perceived odor familiarity rating [1, 5]","perceived odor pleasantness rating [2, 4]","perceived odor pleasantness rating [2, 5]","perceived odor intensity rating [3, 4]","perceived odor intensity rating [3, 5]","perceived odor familiarity rating [1, 6]","perceived odor pleasantness rating [2, 6]","perceived odor intensity rating [3, 6]"
CCC/C=C/COC(C)=O [trans-2-Hexenyl acetate],52.4 ± 30,38.8 ± 26,41.2 ± 30,49 ± 24,64.3 ± 27,38.3 ± 30,,,
CC/C=C\CCOC(=O)c1ccccc1O [cis-3-Hexenyl salicylate],40.2 ± 26,36.8 ± 33,48.1 ± 26,49.8 ± 24,49.2 ± 30,9.75 ± 16,,,
c1ccc(COCc2ccccc2)cc1 [Benzyl ether],31 ± 26,,49.2 ± 23,,25.2 ± 26,,63.8 ± 32,67.8 ± 27,75.7 ± 24
CCOC(C)=O [ethyl acetate],44.2 ± 30,40 ± 32,45.2 ± 22,45.7 ± 29,40.3 ± 29,19.3 ± 24,,,
c1ccc(SSc2ccccc2)cc1 [Phenyl disulfide],47.2 ± 29,43.5 ± 29,26.6 ± 23,28.3 ± 25,61.2 ± 26,52.5 ± 30,,,
"COc1ccc(C(C)=O)cc1OC [3,4-Dimethoxyacetophenone]",35.9 ± 26,,51.4 ± 20,,26.5 ± 30,,48.6 ± 30,38.9 ± 26,61.7 ± 26
COc1ccccc1OC(=O)Cc1ccccc1 [Guaiacyl phenylacetate],45.1 ± 32,,37.2 ± 28,,60.8 ± 28,,58.5 ± 28,42.2 ± 29,71.5 ± 22
